According to patent US20100047360A1, “Use Of Polyamines In The Treatment Of Psoriasis” (Bioforskining Pharma AS, priority 2006, published 2010):

System: psoriasis
Experiment: Clinical study, efficacy of topical cream in psoriasis patients
Format: in vivo, human
Conditions: patient; previously used antipsoriasis drugs
Text: The patient started to use a cream according to Example 1 two to four times daily. […] The patient stopped using the spermine cream after about six months.
A patient with psoriasis (knees, elbows and scalp) started to use a cream according to Example 1 daily.
A patient with psoriasis (scalp, auditory canal, hands, elbows, partly in the face and body (psoriasis grade medium on 15% of the body)).

CN(Cc1cnc2nc(N)nc(N)c2n1)c1ccc(C(=O)N[C@@H](CCC(=O)O)C(=O)O)cc1 [methotrexate]
effectiveness of previous treatment: only effective treatment
